These results are taken from ChEMBL document CHEMBL3507680, “University of Dundee, Gates Library screen for HepG2 cell viability”.

Structures are written as SMILES.

This data set can be described thus: Human HepG2 cell viability assay in 384 well format. The format is toxicity, cell-based. Also noted: dose 125 nL, time 70.5 hour; concentration not given beside the values. The settings on record: HepG2 cells, read-out: Inhibition.
For `O=C(c1cc[nH]n1)N1CCCC(c2cccc(-n3ccnc3)n2)C1` (stereo not given), the cytotoxicity at 70.5 h is -10.3%.

On to `O=C(Nc1ccc(Br)cc1F)c1cc(CN2CCOCC2)on1`, for which the cytotoxicity at 70.5 h was -5.21%.

Consider `Cn1ncc2c1CN(Cc1ccc(F)cc1)CC2COCC1CC1` (stereo not given), for which the cytotoxicity at 70.5 h was 31.5%.

For `Cc1ccc(CN2CCCC3(CCCCN3S(C)(=O)=O)C2)s1` (stereo not given), the cytotoxicity at 70.5 h is 19.2%.

As for `CCc1nc(C2CCCN2CCCS(=O)(=O)c2ccccc2)no1` (stereo not given), the cytotoxicity at 70.5 h was -7.66%.

`CC(C)c1nc(CN(C)Cc2ccc(O)c(C(=O)O)c2)cs1`: the cytotoxicity at 70.5 h is -4.7%.

Turning to `Cn1nc(C2CCCN2)c2c(C(=O)NC3CC3)cc(C3CC3)nc21` (stereo not given), the cytotoxicity at 70.5 h was 20%.

Consider `CC(=O)N1CCCN(C(=O)C(C)n2cncn2)CC1` (stereo not given), for which the cytotoxicity at 70.5 h is -3.53%.

As for `COCCN(Cc1ccccn1)C(=O)CC1OCCc2ccccc21` (stereo not given), the cytotoxicity at 70.5 h was -6.98%.

With `Fc1cccnc1O[C@@H]1CN(Cc2ccco2)[C@@H]2CCCO[C@@H]21`, the cytotoxicity at 70.5 h was -12.4%.

With `Cc1[nH]ncc1C(C)NCc1ccc(F)cc1` (stereo not given), the cytotoxicity at 70.5 h is -1.27%.

For `O=C(CCN1CCOC(Cn2cccn2)C1)NC1CCCC1` (stereo not given), the cytotoxicity at 70.5 h turned out to be 17.5%.

Consider `N#CC1(NC(=O)Cn2nnc(-c3cc4ccccc4o3)n2)CCCC1`, for which the cytotoxicity at 70.5 h was -11.5%.

As to `Cc1ccc(C(O)CNCCn2cccn2)cc1C` (stereo not given), the cytotoxicity at 70.5 h was -3.19%.

For the compound `Cc1ccccc1C(=O)N1CCOCC1CN(C)C` (stereo not given), the cytotoxicity at 70.5 h was -9.03%.

As for `Cc1ccc(NC(=O)CN(C)C(=O)c2ccc(-n3cccc3)nc2)nc1`, the cytotoxicity at 70.5 h is -1.66%.

On to `c1ccc(OCc2nc(CNCCn3cccn3)cs2)cc1`, for which the cytotoxicity at 70.5 h worked out at 27%.

Take `CCCNC(=O)c1cccc(CNCc2csc(CC)n2)c1`: the cytotoxicity at 70.5 h is -106%.

As to `NC(=O)C1CNCCN1C(=O)COc1ccccc1` (stereo not given), the cytotoxicity at 70.5 h is -7.46%.

As for `Cc1ccc(C(=O)N2CCC3(CCCN(c4ncc(F)cn4)C3)C2)cn1` (stereo not given), the cytotoxicity at 70.5 h is -5.14%.

Regarding `O=C(CCC(=O)N1CCCC1c1ccsc1)N1CCOCC1` (stereo not given), the cytotoxicity at 70.5 h is -5.51%.

For the compound `COCC(=O)NC(C)Cc1cccc(Br)c1` (stereo not given), the cytotoxicity at 70.5 h is 33.7%.

With `O=S(=O)(C1CC1)N1CCC2(CCCN(c3ncccn3)C2)C1` (stereo not given), the cytotoxicity at 70.5 h turned out to be 18%.

Consider `CN(CCCNC(=O)NCc1ccncc1)CC(F)(F)F`, for which the cytotoxicity at 70.5 h was -8.47%.

As for `N#CC1(C(=O)NCCCNc2ccc(C(F)(F)F)cn2)CCCC1`, the cytotoxicity at 70.5 h is 5.77%.

On to `Cc1cccc2c1cnn2CCCNC(=O)C(C)C`, for which the cytotoxicity at 70.5 h was -10%.

Regarding `COc1ccc(C(C)N2CCC(OC)CC2)cc1Cl` (stereo not given), the cytotoxicity at 70.5 h was -5.66%.

Take `Cc1nc(N(C)CCCc2nccn2C)c2c(C)nn(C)c2n1`: the cytotoxicity at 70.5 h is -6.47%.

Turning to `CCC(=O)NC1CCN(c2cccc(CC)c2)CC1`, the cytotoxicity at 70.5 h is 38.9%.

On to `CC(C)n1cnc2c(N3CCCC3)nc(C3CCNCC3)cc21`, for which the cytotoxicity at 70.5 h came out at 5.44%.

As to `O=C(CC1CC1)NCc1cn2c(n1)CN(CC1CC1)CC2`, the cytotoxicity at 70.5 h is -19.5%.

Turning to `c1cnnc(N2CCCC(NCc3nc(-c4cccs4)no3)C2)c1` (stereo not given), the cytotoxicity at 70.5 h was -6.61%.

Take `O=C(C1CCOC1)N1CCN(CC2CC2)c2ccccc21` (stereo not given): the cytotoxicity at 70.5 h is -6.39%.

On to `CC[C@H]1CN2CC[C@H]1C[C@@H]2CNC(=O)Nc1cc(OC)cc(OC)c1`, for which the cytotoxicity at 70.5 h came to 0.42%.

For the compound `O=C(O)c1cc(-c2cccs2)nc2c(Br)cnn12`, the cytotoxicity at 70.5 h came to 3.58%.

On to `Cc1cnc(CNCc2cnc(-c3ccccc3C)s2)cn1`, for which the cytotoxicity at 70.5 h was -1.03%.

Consider `O=C(CCCn1cncn1)NC1CCc2nccn2C1` (stereo not given), for which the cytotoxicity at 70.5 h is -0.0953%.

As for `COc1ccc2c(c1)CCCC2CC(=O)NCC(=O)O` (stereo not given), the cytotoxicity at 70.5 h was -4.55%.

In the case of `COc1cnc(CN2CCN(CC(C)C)C(=O)C2C)cc1O` (stereo not given), the cytotoxicity at 70.5 h worked out at 0.0157%.

With `O=C(Cn1nc(-c2ccc(F)cc2)oc1=O)NCCc1ccccc1`, the cytotoxicity at 70.5 h is -10.7%.

As to `NC(=O)CC1CCN(C(=O)CCOc2ccc(Cl)cc2)CC1`, the cytotoxicity at 70.5 h was -1.2%.

As for `CC(C)Nc1nc2c(c(NC3CC3)n1)CN(C(=O)Cc1ccsc1)CC2`, the cytotoxicity at 70.5 h amounted to 3.26%.

For the compound `COc1c(-c2ccc(O)cc2)oc2cc(O)cc(O)c2c1=O` [ISOKAEMPFERIDE], the cytotoxicity at 70.5 h is -8.89%.

As for `COc1ccc(CN2CCN(CC3CC3)[C@@H]3CS(=O)(=O)C[C@@H]32)cc1C`, the cytotoxicity at 70.5 h came out at 10.6%.

For the compound `CN(Cc1ccccn1)C(=O)[C@]12COC[C@H]1CN(Cc1cnn(C)c1)C2`, the cytotoxicity at 70.5 h is -15.4%.

Regarding `CCCC(=O)NC1CCCN(c2cncc(Br)c2)C1` (stereo not given), the cytotoxicity at 70.5 h was -10.5%.

For the compound `COCC1CN(Cc2ccoc2)Cc2cn(C)nc21` (stereo not given), the cytotoxicity at 70.5 h was -7.39%.

Turning to `Cc1nc(CC(=O)N2CCN(Cc3ccc(C#N)cc3)CC2)cs1`, the cytotoxicity at 70.5 h is -1.78%.

As for `CC/C=C(\C)CN1CCC(CNC(=O)c2c[nH]c(=O)c(Cl)c2)C1` (stereo not given), the cytotoxicity at 70.5 h was determined as 12.8%.

Turning to `CCOc1ccccc1C(=O)N1CCn2c(nnc2C(F)(F)F)C1`, the cytotoxicity at 70.5 h is -1.86%.

For `COc1ccc(CN2C[C@H]3C[C@H](CN(C)C)O[C@H]3C2)cc1`, the cytotoxicity at 70.5 h is -5.86%.

Regarding `O=C([C@@H]1COC[C@H]2CN(CC3CC3)C[C@H]21)N1CCC(F)CC1`, the cytotoxicity at 70.5 h was 32.5%.

Turning to `CC(=O)NCc1ccc(C(=O)N2CCCC2c2cnn(C)c2)o1` (stereo not given), the cytotoxicity at 70.5 h is -13.1%.

In the case of `COc1cccc(N2CC3(CCN(Cc4nccn4C)C3)CC2=O)c1` (stereo not given), the cytotoxicity at 70.5 h was -16.5%.

On to `O=C1CC[C@H]2[C@@H](CCN2Cc2ccco2)N1`, for which the cytotoxicity at 70.5 h is -8.59%.

For `COCCC1(CNC(=O)Nc2ccnc(C)c2)CCCC1`, the cytotoxicity at 70.5 h is -20.4%.

Consider `CCCC(=O)N1CC[C@@H]2[C@H](CC1)N(Cc1cccnc1)CCS2(=O)=O`, for which the cytotoxicity at 70.5 h came out at 4.18%.

Consider `O=C1CC2(CCN(Cc3ccccn3)C2)CN1c1cccnc1` (stereo not given), for which the cytotoxicity at 70.5 h is 1.41%.

With `CC(=O)N1CCCN(C(=O)NCc2ccccn2)CC1`, the cytotoxicity at 70.5 h was found to be 3.62%.

`Cc1csc(CCNC(=O)c2cc3c(nc2O)CCC(C)C3)n1` (stereo not given): the cytotoxicity at 70.5 h was -8.45%.

Turning to `CCCC(=O)N1CCN(Cc2cc(-c3ccncc3)nn2C)CC1`, the cytotoxicity at 70.5 h came to 0.205%.

As to `CC(C)C(=O)N1CCCC(Cc2cccnc2)C1` (stereo not given), the cytotoxicity at 70.5 h is -0.448%.

On to `CCN1CCCC12CCCN(c1ncccn1)C2` (stereo not given), for which the cytotoxicity at 70.5 h is -9.5%.

Consider `CSCC(=O)N[C@H]1CN(Cc2c(C)noc2C)C[C@@H]1C(C)C`, for which the cytotoxicity at 70.5 h is -0.898%.

With `Cc1noc(C)c1CS(=O)(=O)CC(=O)NCCc1cccs1`, the cytotoxicity at 70.5 h amounted to 15.1%.

For `c1cnc2c(c1)cc([C@@H]1CCCO1)n2CCN1CCOCC1`, the cytotoxicity at 70.5 h was 0.0365%.

In the case of `O=c1[nH]c(CN2CCOC(Cn3cccn3)C2)nc2ccccc12` (stereo not given), the cytotoxicity at 70.5 h is -6.2%.

As for `Cc1nc(C2CCCN(C(C)C)C2)sc1Br` (stereo not given), the cytotoxicity at 70.5 h was -4.14%.

In the case of `Cc1nc(COC[C@@]23CCC[C@@H]2CN(Cc2cnn(C)c2)C3)cs1`, the cytotoxicity at 70.5 h was -5%.

As for `CCOc1ccc(CN2CCN(C(=O)c3ccc(C)n3C)CC2)cc1`, the cytotoxicity at 70.5 h is -0.122%.

For `Cc1ncccc1CNCC1CCN(CC(C)O)CC1` (stereo not given), the cytotoxicity at 70.5 h was -4.39%.

With `CNC(=O)C1Cn2ccnc2C2(CCN(Cc3ccncc3)CC2)O1` (stereo not given), the cytotoxicity at 70.5 h is -10.9%.

For the compound `CCOc1ncccc1CNC(=O)NCC(O)c1ccccc1OC` (stereo not given), the cytotoxicity at 70.5 h was -1.39%.

As for `O=C(CNc1nc(C(F)(F)F)cs1)N1CCc2sccc2C1`, the cytotoxicity at 70.5 h was -8.73%.

For the compound `Cc1ncc2c(n1)CN(CC(=O)Nc1cc(C)on1)CC2`, the cytotoxicity at 70.5 h is -5.61%.

Turning to `CC(=O)Nc1nc(C(=O)N2CCCC(n3cncn3)C2)cs1` (stereo not given), the cytotoxicity at 70.5 h was -11.2%.

For the compound `COc1cc(CNc2nncs2)cc(OC)c1OC`, the cytotoxicity at 70.5 h came to 12.6%.

On to `Cc1cccc(CN2CCC(c3nnsc3S(C)(=O)=O)CC2)n1`, for which the cytotoxicity at 70.5 h is -4.43%.

As to `CCOC(=O)N1CCN(C(=O)c2sc(-c3ccccc3F)nc2C)CC1`, the cytotoxicity at 70.5 h is -11.8%.

In the case of `Cc1cccc(-c2nc(C)nn2CC(=O)NC(C)C2CC2)c1` (stereo not given), the cytotoxicity at 70.5 h was -5.76%.

With `O=C(NC1CCCN(CCc2ccccc2)C1)c1ccccn1` (stereo not given), the cytotoxicity at 70.5 h was -1.94%.

With `COc1ccc(OCCCN2CCOC(Cn3cccn3)C2)cc1` (stereo not given), the cytotoxicity at 70.5 h is 15.4%.

Regarding `CC(NS(C)(=O)=O)C(=O)Nc1ccc2oc(C3CC3)nc2c1` (stereo not given), the cytotoxicity at 70.5 h was -3.24%.

Turning to `O=C(CC1CCCC1)N1CCC2(CC1)[C@H](O)C[C@@H]2O`, the cytotoxicity at 70.5 h was -12.2%.

Take `NC(=O)NCC1CCCCN1C(=O)c1cccc(C(F)(F)F)c1` (stereo not given): the cytotoxicity at 70.5 h is -3.78%.

`CNC(=O)[C@H]1C[C@@H]2CN(Cc3ccc(OC)cc3)C[C@H]1O2`: the cytotoxicity at 70.5 h is -4.08%.

In the case of `CCOc1cccc2c1OCC(C(=O)NS(=O)(=O)c1cccs1)=C2`, the cytotoxicity at 70.5 h is -9.43%.

As to `CCOCc1ccccc1NC(=O)NC1CCN(C2CCCC2)C1` (stereo not given), the cytotoxicity at 70.5 h was -6.21%.

`Cn1cncc1C(=O)N1CCCC(c2ccn[nH]2)C1` (stereo not given): the cytotoxicity at 70.5 h is -16.9%.

As to `Cn1nc(CNC(=O)C2CCC2)cc1C1CC1`, the cytotoxicity at 70.5 h was -4.15%.

`CCN(Cc1noc(C2CCC2)n1)C(=O)c1cnc2ccccc2c1`: the cytotoxicity at 70.5 h turned out to be 13.1%.

As to `O=S(=O)(c1cccs1)N1CCN(Cc2nc(-c3ccco3)cs2)CC1`, the cytotoxicity at 70.5 h worked out at 1.85%.

`CC(C)NC(=O)N1CCC(c2nccn2C(C)C)CC1`: the cytotoxicity at 70.5 h is -3.22%.

Consider `OCCC1CN(c2nc(-c3ccncc3)nc3c2CCNCC3)CCO1` (stereo not given), for which the cytotoxicity at 70.5 h was 2.55%.

For `O=C(NCCc1ccccc1)NCCN1CCC(c2cccs2)CC1`, the cytotoxicity at 70.5 h was determined as 8.49%.

In the case of `O=C(c1cccc(Cl)c1)N1CCCn2c(CN3CCCCC3)nnc2C1`, the cytotoxicity at 70.5 h was -1.86%.

As for `CCN1CCc2nc(N3CCOCC3)nc(NC(C)C)c2C1`, the cytotoxicity at 70.5 h was -9.45%.

Take `CNc1oc(-c2ccc(OC)c(S(=O)(=O)N3CCCCC3)c2)nc1C#N`: the cytotoxicity at 70.5 h was -18%.

For the compound `Cc1nc2ccnn2c(C)c1CCC(=O)N1CCN(CCO)CC1`, the cytotoxicity at 70.5 h was -9.84%.

Regarding `O=C(NCCNc1ccc(C(F)(F)F)cn1)c1cncc(Br)c1`, the cytotoxicity at 70.5 h was -12.5%.
